This note sets out measurements from patent US12421253B2 (Mirati Therapeutics, Inc., priority 2020, dated 2025).

Where only a bound is given, the exact number is not on record here.

The target of one experiment is T1, KRas^G12V (Homo sapiens, UniProt P01116, G12V).
T1 construct: […]; biotin (biotinylated); purchased Accelegan Inc
Briefly: KRas binding assay (TR-FRET displacement of Cy5 labelled tracer).

For the next experiment, the system named is ASPC1 cells, pERK. Briefly: Inhibition of KRas phosphorylation of ERK (Cisbio HTRF Advanced pERK assay). It is filed as cell-based. The note with it: Homo sapiens, ASPC1, 3 h, AsPC-1 cells, read-out: Inhibition (HTRF IC50 nM) of KRas-mediated Phosphorylation of ERK, AsPC-1. The method in brief:
(§1)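 pERK measured by HTRF in lysates from cells treated 3 h with compound, 10 uM top, 3-fold steps, 10 doses, 0.8% DMSO final. Cells (6,000/well, RPMI 10% FBS) had been plated overnight at 37 °C; 0.2 uM trametinib defined minimum signal; antibody detection 2 h at room temperature.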

Another experiment deals with H358 cells, pERK. Described as above. In kind it is cell-based. As to conditions: Homo sapiens, NCI-H358, 3 hrs, read-out: Inhibition (HTRF IC50 nM) of KRas-mediated Phosphorylation of ERK, H358. The method in brief: as §1
The test system of another experiment is PSN1 cells, pERK. The description is as above. In kind it is cell-based. As to conditions: Homo sapiens, PSN1, 3 h, read-out: Inhibition (HTRF IC50 nM) of KRas-mediated Phosphorylation of ERK, PSN1. Put shortly:
as §1

The subject of a further experiment is MKN1 cells, pERK. The description is as above. In kind it is cell-based. As to conditions: Homo sapiens, MKN-1, 3 h, read-out: Inhibition (HTRF IC50 nM) of KRas-mediated Phosphorylation of ERK, MKN1. The method in brief: as §1
Another experiment has as its system H460 cells, pERK. The description is as above. It is filed as cell-based. As to conditions: Homo sapiens, NCI-H460, 3 hrs, read-out: Inhibition (HTRF IC50 nM) of KRas-mediated Phosphorylation of ERK, H460. The method in brief: as §1
The next experiment relates to H727 cells, pERK. The experiment is described as above. It is filed as cell-based. The note with it: Homo sapiens, NCI-H727, 3 h, read-out: Inhibition (HTRF IC50 nM) of KRas-mediated Phosphorylation of ERK, H727. The method in brief: as §1
In another experiment the target is T2, KRas^G12R (Homo sapiens, UniProt P01116, G12R).
T2 construct: […]; biotin (biotinylated); purchased Accelegan Inc
T2 sequence (P01116 1-169 isoform P01116-2 G12R): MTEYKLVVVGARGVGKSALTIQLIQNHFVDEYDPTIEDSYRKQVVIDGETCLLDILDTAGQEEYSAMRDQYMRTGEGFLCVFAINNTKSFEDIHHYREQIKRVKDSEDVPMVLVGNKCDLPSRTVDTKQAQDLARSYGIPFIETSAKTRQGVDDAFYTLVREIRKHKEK
Briefly: KRas binding assay (TR-FRET displacement of Cy5 labelled tracer).

The next experiment has as its target T3, KRas^G12D (Homo sapiens, UniProt P01116, G12D).
T3 construct: […]; biotin (biotinylated); purchased Accelegan Inc
The experiment is described as above.

Experiment [1] has as its system AsPC-1 (G12D) cells, phospho-ERK. Put plainly: Inhibition of KRas-mediated phosphorylation of ERK (phospho-ERK/GAPDH antibody detection, LI-COR). As to conditions: Homo sapiens, ASPC1, 3 hours. It is filed as cell-based. Put shortly:
(§2)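 Cells seeded 20,000/well, attached 12-14 h, then compound (0.5% DMSO) for 3 h. Formaldehyde-fixed, methanol-permeabilized cells stained for phospho-ERK (Thr202/Tyr204) and GAPDH; infrared imaging. Ratio expressed as % of DMSO control; IC50 from 4-parameter fit.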

The test system of experiment [2] is NCI-H460 (Q61H) cells, phospho-ERK. Described as above. The note with it: Homo sapiens, 3 hours. In kind it is cell-based. Put shortly: as §2
In experiment [3] the test system is NCI-H727 (G12V) cells, phospho-ERK. The experiment is described as above. In kind it is cell-based. As to conditions: Homo sapiens, 3 hours. Put shortly:
as §2

A further experiment relates to HCT116 cells, pERK. Briefly: Inhibition of KRas phosphorylation of ERK (Cisbio HTRF Advanced pERK assay). It is filed as cell-based. The note with it: Homo sapiens, HCT-116, 3 hrs, read-out: Inhibition (HTRF IC50 nM) of KRas-mediated Phosphorylation of ERK, HCT116. Put shortly: as §1

T1 sequence (P01116 1-169 isoform P01116-2 G12V): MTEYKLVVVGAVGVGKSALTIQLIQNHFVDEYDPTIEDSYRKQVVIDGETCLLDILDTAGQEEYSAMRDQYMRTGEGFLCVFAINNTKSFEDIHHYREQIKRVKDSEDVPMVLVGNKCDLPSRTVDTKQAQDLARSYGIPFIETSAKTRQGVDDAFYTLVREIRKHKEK
T3 sequence (P01116 1-169 isoform P01116-2 G12D): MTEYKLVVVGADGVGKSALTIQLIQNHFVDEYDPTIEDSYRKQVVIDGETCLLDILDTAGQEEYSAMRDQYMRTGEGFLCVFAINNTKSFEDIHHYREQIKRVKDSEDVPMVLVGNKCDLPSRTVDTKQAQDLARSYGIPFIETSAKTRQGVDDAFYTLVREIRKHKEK
Protocol for KRas^G12D: (§3) The ability of a compound to bind to KRas was measured using a TR-FRET displacement assay. […] After a 60-minute incubation at room temperature, the reaction was measured using a BMG LABTECH CLARIO star Plus via TR-FRET. […] The POC values were fit to a 4-parameter IC50 equation and the IC50 value reported.
Protocol for KRas^G12R: as §3
Protocol for KRas^G12V: as §3

Take `CCc1c(F)ccc2cc(O)cc(N3CCc4c(nc(OC[C@@]56CCCN5C[C@H](F)C6)nc4N4CCCn5nc(C(=O)N(C)C)c(F)c5C4)C3)c12` [Example 190, 5-(7-(8-ethyl-7-fluoro-3-hydroxynaphthalen-1-yl)-2-(((2R,7aS)-2-fluorotetrahydro-1H-pyrrolizin-7a(5H)-yl)methoxy)-5,6,7,8-tetrahydropyrido[3,4-d]pyrimidin-4-yl)-3-fluoro-N,N-dimethyl-5,6,7,8-tetrahydro-4H-pyrazolo[1,5-a][1,4]diazepine-2-carboxamide]: the IC50 is ≤ 0.002 µM at KRas^G12V; 2 nM in the experiment with ASPC1 cells, pERK; 3 nM with H358 cells, pERK; 5450 nM in the experiment with PSN1 cells, pERK; 6 nM with MKN1 cells, pERK; 49 nM with H460 cells, pERK. Further, the IC50 was 6 nM in the experiment with H727 cells, pERK; ≤ 0.002 µM at KRas^G12R; ≤ 0.002 µM on KRas^G12D.

As for `CCc1c(F)ccc2cc(O)cc(N3CCc4c(nc(OC[C@@]56CCCN5C[C@H](F)C6)nc4N4CCCC(O)CC4)C3)c12` (stereo partly drawn) [Example 30, 1-(7-(8-ethyl-7-fluoro-3-hydroxynaphthalen-1-yl)-2-(((2R,7aS)-2-fluorohexahydro-1H-pyrrolizin-7a-yl)methoxy)-5,6,7,8-tetrahydropyrido[3,4-d]pyrimidin-4-yl)azepan-4-ol], the IC50 on KRas^G12V was ≤ 0.002 µM; in experiment [1], 447 nM; in experiment [2], 309 nM; in [3], 399 nM; with HCT116 cells, pERK it was 480 nM; in the experiment on ASPC1 cells, pERK it was 86 nM. The IC50 is 83 nM with H358 cells, pERK; 3510 nM in the experiment on PSN1 cells, pERK; 16 nM with MKN1 cells, pERK; 203 nM in the experiment with H460 cells, pERK; 227 nM with H727 cells, pERK; ≤ 0.002 µM on KRas^G12R. The IC50 at KRas^G12D was ≤ 0.002 µM.

On to `CCc1c(F)ccc2cc(O)cc(N3CCc4c(nc(OC[C@@]56CCCN5C[C@H](F)C6)nc4N4CCCn5nc(C(=O)N6CCCC6)cc5C4)C3)c12` [Example 191, (5-(7-(8-ethyl-7-fluoro-3-hydroxynaphthalen-1-yl)-2-(((2R,7aS)-2-fluorotetrahydro-1H-pyrrolizin-7a(5H)-yl)methoxy)-5,6,7,8-tetrahydropyrido[3,4-d]pyrimidin-4-yl)-5,6,7,8-tetrahydro-4H-pyrazolo[1,5-a][1,4]diazepin-2-yl)(pyrrolidin-1-yl)methanone], for which the IC50 at KRas^G12V came to 0.052 µM; with ASPC1 cells, pERK, 3 nM; with H358 cells, pERK it was 3 nM; in the experiment on PSN1 cells, pERK, 2960 nM; in the experiment with MKN1 cells, pERK, 10 nM; in the experiment with H460 cells, pERK, 33 nM. Moreover, the IC50 with H727 cells, pERK was 3 nM; at KRas^G12R, ≤ 0.002 µM; on KRas^G12D, ≤ 0.002 µM.

As to `O=S1(=O)NCC2(CCCN(c3nc(OC[C@@]45CCCN4C[C@H](F)C5)nc4c3CCN(c3cc(O)cc5ccc(F)c(Br)c35)C4)C2)N1` (stereo partly drawn) [Example 225, 7-(7-(8-bromo-7-fluoro-3-hydroxynaphthalen-1-yl)-2-(((2R,7aS)-2-fluorohexahydro-1H-pyrrolizin-7a-yl)methoxy)-5,6,7,8-tetrahydropyrido[3,4-d]pyrimidin-4-yl)-2-thia-1,3,7-triazaspiro[4.5]decane 2,2-dioxide], the IC50 at KRas^G12V was ≤ 0.002 µM; in the experiment on HCT116 cells, pERK, 158 nM; in the experiment on ASPC1 cells, pERK, 23 nM; in the experiment on H358 cells, pERK it was 9 nM; in the experiment with PSN1 cells, pERK it was 328 nM; in the experiment on MKN1 cells, pERK it was 3 nM. For the same molecule, the half-maximal inhibitory concentration (IC50) in the experiment on H460 cells, pERK is 56 nM; in the experiment on H727 cells, pERK, 82 nM; at KRas^G12R, ≤ 0.002 µM; at KRas^G12D it was ≤ 0.002 µM.

For `CCc1c(F)ccc2cc(O)cc(N3CCc4c(nc(OC[C@@]56CCCN5C[C@H](F)C6)nc4N4CCCc5nn(C(=O)N(C)C)cc5C4)C3)c12` [Example 194, 5-(7-(8-ethyl-7-fluoro-3-hydroxynaphthalen-1-yl)-2-(((2R,7aS)-2-fluorohexahydro-1H-pyrrolizin-7a-yl)methoxy)-5,6,7,8-tetrahydropyrido[3,4-d]pyrimidin-4-yl)-N,N-dimethyl-5,6,7,8-tetrahydropyrazolo[4,3-c]azepine-2(4H)-carboxamide], the IC50 is ≤ 0.002 µM on KRas^G12V; 71 nM in the experiment with ASPC1 cells, pERK; 63 nM in the experiment on H358 cells, pERK; ≥ 10000 nM with PSN1 cells, pERK; 100 nM with MKN1 cells, pERK; 426 nM in the experiment with H460 cells, pERK. The IC50 with H727 cells, pERK is 115 nM; on KRas^G12R, ≤ 0.002 µM; on KRas^G12D, ≤ 0.002 µM.

For the molecule `CCc1c(F)ccc2cc(O)cc(N3CCc4c(nc(OC[C@@]56CCCN5C[C@H](F)C6)nc4N4CCCn5nc(C(=O)N(C)C)c(C)c5C4)C3)c12` [Example 189, 5-(7-(8-ethyl-7-fluoro-3-hydroxynaphthalen-1-yl)-2-(((2R,7aS)-2-fluorotetrahydro-1H-pyrrolizin-7a(5H)-yl)methoxy)-5,6,7,8-tetrahydropyrido[3,4-d]pyrimidin-4-yl)-N,N,3-trimethyl-5,6,7,8-tetrahydro-4H-pyrazolo[1,5-a][1,4]diazepine-2-carboxamide], the IC50 on KRas^G12V is 0.052 µM; in the experiment with ASPC1 cells, pERK it was 2 nM; in the experiment with H358 cells, pERK it was 1 nM; in the experiment with PSN1 cells, pERK, 2680 nM; with MKN1 cells, pERK it was 4 nM; in the experiment with H460 cells, pERK it was 39 nM. Also, the IC50 with H727 cells, pERK was 3 nM; at KRas^G12R it was ≤ 0.002 µM; at KRas^G12D it was ≤ 0.002 µM.

Turning to `O=C1NC(=O)C2CN(c3nc(OC[C@@]45CCCN4C[C@H](F)C5)nc4c3CCN(c3cc(O)cc5ccc(F)c(Br)c35)C4)CC12` (stereo partly drawn) [Example 226, 5-(7-(8-bromo-7-fluoro-3-hydroxynaphthalen-1-yl)-2-(((2R,7aS)-2-fluorohexahydro-1H-pyrrolizin-7a-yl)methoxy)-5,6,7,8-tetrahydropyrido[3,4-d]pyrimidin-4-yl)tetrahydropyrrolo[3,4-c]pyrrole-1,3(2H,3aH)-dione], the 50% inhibitory concentration (IC50) was ≤ 0.002 µM on KRas^G12V; 45 nM in the experiment on ASPC1 cells, pERK; 22 nM with H358 cells, pERK; 2790 nM in the experiment on PSN1 cells, pERK; 7 nM in the experiment on MKN1 cells, pERK; 169 nM in the experiment on H460 cells, pERK. The IC50 was 43 nM in the experiment with H727 cells, pERK; ≤ 0.002 µM on KRas^G12R; ≤ 0.002 µM on KRas^G12D.

Turning to `CCc1c(F)ccc2cc(O)cc(N3CCc4c(nc(OC[C@@]56CCCN5C[C@H](F)C6)nc4N4CCCn5nc(C(=O)NC(C)C)cc5C4)C3)c12` [Example 188, 5-(7-(8-ethyl-7-fluoro-3-hydroxynaphthalen-1-yl)-2-(((2R,7aS)-2-fluorotetrahydro-1H-pyrrolizin-7a(5H)-yl)methoxy)-5,6,7,8-tetrahydropyrido[3,4-d]pyrimidin-4-yl)-N-isopropyl-5,6,7,8-tetrahydro-4H-pyrazolo[1,5-a][1,4]diazepine-2-carboxamide], the IC50 on KRas^G12V was ≤ 0.002 µM; with ASPC1 cells, pERK it was 2 nM; in the experiment with H358 cells, pERK, 3 nM; in the experiment on PSN1 cells, pERK, 2880 nM; in the experiment with MKN1 cells, pERK, 7 nM; in the experiment with H460 cells, pERK, 49 nM. The half-maximal inhibitory concentration (IC50) in the experiment on H727 cells, pERK was 4 nM; at KRas^G12R it was ≤ 0.002 µM; at KRas^G12D, ≤ 0.002 µM.

Turning to `CCc1c(F)ccc2cc(O)cc(N3CCc4c(nc(OC[C@@]56CCCN5C[C@H](F)C6)nc4N4CCCn5nc(C(=O)N6CCOCC6)cc5C4)C3)c12` [Example 193, (5-(7-(8-ethyl-7-fluoro-3-hydroxynaphthalen-1-yl)-2-(((2R,7aS)-2-fluorohexahydro-1H-pyrrolizin-7a-yl)methoxy)-5,6,7,8-tetrahydropyrido[3,4-d]pyrimidin-4-yl)-5,6,7,8-tetrahydro-4H-pyrazolo[1,5-a][1,4]diazepin-2-yl)(morpholino)methanone], the IC50 at KRas^G12V was ≤ 0.002 µM; in the experiment with HCT116 cells, pERK, 74 nM; with ASPC1 cells, pERK it was 3 nM; with H358 cells, pERK, 2 nM; with PSN1 cells, pERK, 2100 nM; in the experiment on MKN1 cells, pERK it was 4 nM. The IC50 with H460 cells, pERK is 38 nM; in the experiment with H727 cells, pERK, 5 nM; on KRas^G12R, ≤ 0.002 µM; on KRas^G12D, ≤ 0.002 µM.
